Read-outs that look alike come from different tables or passages of the source.
Key:
male mice = assay: Anti-hypoxic activity (gasping time after decapitation); type: in vivo; conditions: Mus musculus, po, 100 mg/kg/p.o., read-out: Gasping time, % diff. from control
Normolipemic rats = assay: Hypolipemic activity in normolipemic rats; type: in vivo, rat (Sprague Dawley Nos male rats); conditions: for hypolipemic activity (in words): oral
toxic adrenaline doses = assay: animal or person; type: in vivo, mouse (male mice CrI:CD 1(CR) BR); conditions: Mus musculus, po, 24 h, read-out: PD50 (50% protective dose)
platelet aggregation = assay: Collagen-induced platelet aggregation ex vivo; type: in vivo, rat
[1] = biological target: alpha1-adrenergic receptors; conditions: (a) Qian et al. 1983 for Tibalosine; (b) Van Zwieten et al. 1985 for Urapidil; cited from earlier work
[2] = biological target: T1, alpha2-adrenergic receptors (Rattus norvegicus, UniProt P22909); conditions: (a) Qian et al. 1983 for Tibalosine; (b) Van Zwieten et al. 1985 for Urapidil; cited from earlier work
T1 construct: from tissue; host or cells: rat brain membranes
T1 sequence (P22909 1-465): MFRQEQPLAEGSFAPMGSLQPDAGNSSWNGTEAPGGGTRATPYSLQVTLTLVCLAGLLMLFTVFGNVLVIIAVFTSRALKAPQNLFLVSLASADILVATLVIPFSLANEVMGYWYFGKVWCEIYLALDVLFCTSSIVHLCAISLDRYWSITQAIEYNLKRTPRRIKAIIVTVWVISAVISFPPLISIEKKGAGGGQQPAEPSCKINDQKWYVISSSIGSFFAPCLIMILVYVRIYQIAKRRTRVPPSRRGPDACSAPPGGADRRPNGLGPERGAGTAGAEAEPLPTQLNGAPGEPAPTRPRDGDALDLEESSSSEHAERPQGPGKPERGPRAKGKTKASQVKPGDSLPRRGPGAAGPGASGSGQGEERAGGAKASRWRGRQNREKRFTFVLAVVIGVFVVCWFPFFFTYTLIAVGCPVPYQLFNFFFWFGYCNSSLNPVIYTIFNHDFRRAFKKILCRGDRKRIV

[3] = tested on: SH rats (spontaneously hypertensive rats); assay: Anti-hypertensive activity in spontaneously hypertensive rats, tail artery plethysmography; type: in vivo, rat; conditions: SHR
Experimental: The anti-hypertensive activity was tested on groups of 5 SH rats (spontaneously hypertensive rats) weighing 200±10 g, fasting for 18 hrs and treated orally with the invention compounds suspended in 2.5% gum arabic.
Changes in blood pressure (mm Hg) before (T=0) and after treatment (2, 4 and 6 hrs) were measured according to the method of tail artery plethysmography reported in "Spontaneously hypertensive rats (SHR): Guidlines for breeding, care and use", SHR Conference, 1976, page 11.
The arterial pressure before the treatment was 210±10 mmHg.

[4] = 0.15 mM/kg oral, blood 1 hr after treatment, collagen 2-4 mcg/ml

Compound: COc1ccc2cc(C(O)C(C)N3CCN(c4ccccc4OC)CC3)ccc2c1 (stereo not drawn) [MG 38098, threo-2-[4-(2-Methoxyphenyl)-1-piperazinyl]-1-(6-methoxy-2-naphthyl)-propanol]
- change in vivo at 100 mg/kg (male mice; pretreatment 90 min): 41.1%

Compound: COc1ccc2cc(C(O)C(C)N3CCC(NC(=O)c4ccccc4)CC3)ccc2c1 (centres unmarked) [MG 38105, 2-(4-Benzamido-1-piperidinyl)-1-(6-methoxy-2-naphthyl)-propanol]
- CHOL, % different from control (Normolipemic rats; 0.023 mM/kg/p.o. × 4 days): -35.7%
- CHOL-HDL, % different from control (Normolipemic rats; 0.023 mM/kg/p.o. × 4 days): -13.3%
- Liver Weight, % different from control (Normolipemic rats; 0.023 mM/kg/p.o. × 4 days): +5.5%
- TG, % different from control (Normolipemic rats; 0.023 mM/kg/p.o. × 4 days): -36.2%
- CHOL, % different from control (Normolipemic rats; 0.046 mM/kg/p.o. × 4 days): -45.8%
- CHOL-HDL, % different from control (Normolipemic rats; 0.046 mM/kg/p.o. × 4 days): +1.3%
- Liver Weight, % different from control (Normolipemic rats; 0.046 mM/kg/p.o. × 4 days): +8.0%
- TG, % different from control (Normolipemic rats; 0.046 mM/kg/p.o. × 4 days): -63.8%
- CHOL, % different from control (Normolipemic rats; 0.185 mM/kg/p.o. × 4 days): -96.6%
- CHOL-HDL, % different from control (Normolipemic rats; 0.185 mM/kg/p.o. × 4 days): +3.9%
- Liver Weight, % different from control (Normolipemic rats; 0.185 mM/kg/p.o. × 4 days): +4.8%
- TG, % different from control (Normolipemic rats; 0.185 mM/kg/p.o. × 4 days): -70.6%
- hypolipemic activity (in words) (Normolipemic rats): good activity at very low doses

Compound: COc1ccc2cc(C(O)C(C)N3CCC(NC(=O)c4ccccc4)CC3)ccc2c1 (centres unmarked) [MG 38127, 2-(4-Benzamido-1-piperidinyl)-1-(6-methoxy-2-naphthyl)-propanol]
- CHOL, % different from control (Normolipemic rats; 0.023 mM/kg/p.o. × 4 days): -30.2%
- CHOL-HDL, % different from control (Normolipemic rats; 0.023 mM/kg/p.o. × 4 days): +7.6%
- Liver Weight, % different from control (Normolipemic rats; 0.023 mM/kg/p.o. × 4 days): -1.6%
- TG, % different from control (Normolipemic rats; 0.023 mM/kg/p.o. × 4 days): -41.4%
- CHOL, % different from control (Normolipemic rats; 0.046 mM/kg/p.o. × 4 days): -51.2%
- CHOL-HDL, % different from control (Normolipemic rats; 0.046 mM/kg/p.o. × 4 days): -1.8%
- Liver Weight, % different from control (Normolipemic rats; 0.046 mM/kg/p.o. × 4 days): +8.6%
- TG, % different from control (Normolipemic rats; 0.046 mM/kg/p.o. × 4 days): -66.3%
- CHOL, % different from control (Normolipemic rats; 0.185 mM/kg/p.o. × 4 days): -59.1%
- CHOL-HDL, % different from control (Normolipemic rats; 0.185 mM/kg/p.o. × 4 days): -19.8%
- Liver Weight, % different from control (Normolipemic rats; 0.185 mM/kg/p.o. × 4 days): +3.3%
- TG, % different from control (Normolipemic rats; 0.185 mM/kg/p.o. × 4 days): -81.7%
- hypolipemic activity (in words) (Normolipemic rats): good activity at very low doses

Compound: Cc1ccc(N(CC2=NCCN2)c2cccc(O)c2)cc1 [Phentolamine]
- ED50 (toxic adrenaline doses): 8 mg/kg

Compound: COc1cc2nc(N3CCN(C(=O)c4ccco4)CC3)nc(N)c2cc1OC [Prazosin]
- ED50 (toxic adrenaline doses): 0.7 mg/kg

Compound: CC(C)(Sc1cc(C(C)(C)C)c(O)c(C(C)(C)C)c1)Sc1cc(C(C)(C)C)c(O)c(C(C)(C)C)c1 [Probucol, reference compound]
- CHOL, % different from control (Normolipemic rats; 0.205 mM/kg/p.o. × 8 days): -25.0%
- CHOL-HDL, % different from control (Normolipemic rats; 0.205 mM/kg/p.o. × 8 days): -26%
- Liver Weight, % different from control (Normolipemic rats; 0.205 mM/kg/p.o. × 8 days): +4.0%
- TG, % different from control (Normolipemic rats; 0.205 mM/kg/p.o. × 8 days): -28.0%
- CHOL, % different from control (Normolipemic rats; 0.82 mM/kg/p.o. × 4 days): ~ 0%
- CHOL-HDL, % different from control (Normolipemic rats; 0.82 mM/kg/p.o. × 4 days): +18.5%
- Liver Weight, % different from control (Normolipemic rats; 0.82 mM/kg/p.o. × 4 days): ~ 0%
- TG, % different from control (Normolipemic rats; 0.82 mM/kg/p.o. × 4 days): ~ 0%
- hypolipemic activity (in words) (Normolipemic rats): moderate and is noted only after prolonged treatment (8 days)

Compound: O=C1C(CC[S+]([O-])c2ccccc2)C(=O)N(c2ccccc2)N1c1ccccc1 (centres unmarked) [Sulfinpyrazone, reference compound]
- % Inhibition, Aggregation rate (platelet aggregation; rat, in vivo, po): 89.0%
- % Inhibition, Maximum aggregation (platelet aggregation; rat, in vivo, po): 92.5%

Compound: CCCCCCCCNC(C)C(O)c1ccc(SC(C)C)cc1 (centres unmarked) [Suloctidil, reference compound]
- change in vivo at 100 mg/kg (male mice; pretreatment 45 min): 27.5%
- change in vivo at 100 mg/kg (male mice; pretreatment 90 min): 11.7%
- % Inhibition, Aggregation rate (platelet aggregation; [4]): 57.5%
- % Inhibition, Maximum aggregation (platelet aggregation; [4]): 69.0%

Compound: CC(NCCCCc1ccccc1)C(O)c1ccc2c(c1)CCS2 (centres unmarked) [Tibalosine]
- IC50 [1]: 0.4 µM
- IC50 [2]: 1000 µM
- Max. changes in systolic pressure ([3]; 1 mg/kg p.o.): ~ 0 mmHg
- Max. changes in systolic pressure ([3]; 5 mg/kg p.o.): -13.2 mmHg
- Max. changes in systolic pressure ([3]; 15 mg/kg p.o.): -67 mmHg

Compound: Clc1ccccc1CN1CCc2sccc2C1 [Ticlopidine, reference compound]
- % Inhibition, Aggregation rate (platelet aggregation; [4]): 56.0%
- % Inhibition, Maximum aggregation (platelet aggregation; [4]): 70.0%

Compound: COc1ccccc1N1CCN(CCCNc2cc(=O)n(C)c(=O)n2C)CC1 [Urapidil]
- IC50 [1]: 0.8 µM
- IC50 [2]: 14 µM
- Max. changes in systolic pressure ([3]; 1 mg/kg p.o.): -16 mmHg
- Max. changes in systolic pressure ([3]; 5 mg/kg p.o.): -47 mmHg
- Max. changes in systolic pressure ([3]; 15 mg/kg p.o.): -72.4 mmHg
